Data taken from ChEMBL document CHEMBL2346635, “6-Oxo and 6-thio purine analogs as antimycobacterial agents” (Bioorg Med Chem, 2013).
In brackets after ≈: the same amount, converted by molar mass.

Columns and labels:
Format in all cases: functional
[1] = tested on: Mycobacterium tuberculosis; test: Antimycobacterial activity against rifampin-resistant Mycobacterium tuberculosis assessed as growth inhibition by Alamar blue assay
[2] = tested on: Mycobacterium tuberculosis; test: Antimycobacterial activity against thiacetazone-resistant Mycobacterium tuberculosis assessed as growth inhibition by Alamar blue assay
[3] = tested on: Mycobacterium tuberculosis; test: Antimycobacterial activity against ethambutol-resistant Mycobacterium tuberculosis assessed as growth inhibition by Alamar blue assay
[4] = tested on: Mycobacterium tuberculosis; test: Antimycobacterial activity against ciprofloxacin-resistant Mycobacterium tuberculosis assessed as growth inhibition by Alamar blue assay
[5] = tested on: Mycobacterium tuberculosis; test: Antimycobacterial activity against isoniazid-resistant Mycobacterium tuberculosis assessed as growth inhibition by Alamar blue assay
[6] = tested on: Mycobacterium tuberculosis; test: Antimycobacterial activity against kanamycin-resistant Mycobacterium tuberculosis assessed as growth inhibition by Alamar blue assay

| SMILES | MIC90 [1] | MIC90 [2] | MIC90 [3] | MIC90 [4] | MIC90 [5] | MIC90 [6] |
| --- | --- | --- | --- | --- | --- | --- |
| CCCCCCCCCCCCSc1ncnc2c1ncn2CC(=O)OCC | 3.13 µg/mL (≈ 7.7 µM) | 3.13 µg/mL (≈ 7.7 µM) | 3.13 µg/mL (≈ 7.7 µM) | 1.56 µg/mL (≈ 3.84 µM) | 1.56 µg/mL (≈ 3.84 µM) | – |
| CCCCCCCCCCSc1ncnc2c1ncn2CC(=O)OCC | 6.25 µg/mL (≈ 16.5 µM) | – | 6.25 µg/mL (≈ 16.5 µM) | 12.5 µg/mL (≈ 33 µM) | 12.5 µg/mL (≈ 33 µM) | 6.25 µg/mL (≈ 16.5 µM) |
